In the assay the target is T1, hen egg lysozyme (Gallus gallus, UniProt P00698).
T1 construct: from tissue; host or cells: hen egg
The assay is described as follows: lysozyme denaturation/stabilization test: lysozyme activity on M. luteus suspension, optical density at 450nm. The note with it: Table 1, saline + 20 mM buffering agent. It is filed as biochemical. How it is done:
Each solution included saline and 20 mM of buffering agent as specified in Table 1 below. To each test solution was added 1 mg/ml of hen egg lysozyme as well as a phosphate buffered saline (PBS) control. The test solutions were mixed slowly with a stir bar until the lysozyme was incorporated into the solutions. Five ml of each lysozyme-containing test solution was retained as the unheated control. The remaining 5 ml of each lysozyme-containing test solution were placed in glass less vials, capped with silicone stoppers and incubated in a shaking water bath at 80° C. 40 revolutions per minute (rpm) for 1 hour—these heating conditions are sufficient to denature the lysozyme, absent a stabilization effect provided by the buffering agents. The vials were allowed to come to ambient temperature before testing. A 0.00025 g/ml suspension of M. luteus was prepared from lyophilized cells in PBS. The suspension was continually mixed on a stir plate during the testing period to prevent the suspension from settling. For each set of test solutions, the following were tested (sample): a heated lysozyme-containing test solution (“lysozyme+heat”); an unheated lysozyme-containing test solution (“lysozyme/no heat”; and a test solution without lysozyme (“no lysozyme”). One ml of each sample was placed into a glass test tube to which 9 ml of M. luteus suspension was added and vortexed. A 1-ml sub sample was placed into a disposable cuvette and evaluated on a UV-vis spectrophotometer at 450nm. […] Each of the solutions were evaluated in triplicate. Each of the three optical density measurements from the triplicate samples were averaged.

The mark [1] stands for this setting: lysozyme + heat (80° C., 1 hour).
Where [2] appears, read: lysozyme/no heat, 1 mg/ml lysozyme.

T1 sequence (P00698 19-147): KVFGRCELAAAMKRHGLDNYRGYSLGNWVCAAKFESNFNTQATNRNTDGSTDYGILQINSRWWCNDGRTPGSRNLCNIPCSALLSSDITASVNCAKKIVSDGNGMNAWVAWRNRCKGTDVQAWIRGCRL

As to `O=C(O)CC(O)(CC(=O)O)C(=O)O` [Citrate], under setting [1], the “Time 0 Min (optical density, 450nm)” value is 0.877; the “Percent Change 5 Min” value is 2.96%; the “Time 5 Min (optical density, 450nm)” value came out at 0.851; the “Percent Change 10 Min” value was found to be 10.49%. For the same compound, the “Time 10 Min (optical density, 450nm)” value under setting [1] is 0.785. In addition, the “Time 0 Min (optical density, 450nm)” value under setting [2] came out at 0.654. For the same compound, for the setting “lysozyme/no heat”, the “Percent Change 5 Min” value came out at 92.51%; the “Time 5 Min (optical density, 450nm)” value worked out at 0.049; the “Percent Change 10 Min” value was determined as 95.41%; the “Time 10 Min (optical density, 450nm)” value is reported as 0.030. Besides, for the setting “no lysozyme”, the “Time 0 Min (optical density, 450nm)” value came to 0.857; the “Percent Change 5 Min” value amounted to 0.82%; the “Time 5 Min (optical density, 450nm)” value amounted to 0.850; the “Percent Change 10 Min” value is reported as 0.82%. Besides, where the note is “no lysozyme”, the “Time 10 Min (optical density, 450nm)” value amounted to 0.850.

On to Borate, for which, under setting [1], the “Time 0 Min (optical density, 450nm)” value was 0.872; the “Percent Change 5 Min” value stood at 21.90%; the “Time 5 Min (optical density, 450nm)” value is listed as 0.681; the “Percent Change 10 Min” value came to 55.28%. Moreover, the “Time 10 Min (optical density, 450nm)” value under setting [1] was determined as 0.390. For the same compound, the “Time 0 Min (optical density, 450nm)” value under setting [2] was 0.619. Also, where the note is “lysozyme/no heat”, the “Percent Change 5 Min” value came out at 91.44%; the “Time 5 Min (optical density, 450nm)” value worked out at 0.053; the “Percent Change 10 Min” value is given as 94.51%; the “Time 10 Min (optical density, 450nm)” value was determined as 0.034. For the same compound, where the note is “no lysozyme”, the “Time 0 Min (optical density, 450nm)” value is reported as 0.853; the “Percent Change 5 Min” value was 0.00%; the “Time 5 Min (optical density, 450nm)” value is recorded as 0.853; the “Percent Change 10 Min” value is recorded as −0.12%. Where the note is “no lysozyme”, the “Time 10 Min (optical density, 450nm)” value is 0.854.

On to Phosphate, for which, under setting [1], the “Time 0 Min (optical density, 450nm)” value is 0.861; the “Percent Change 5 Min” value is on record as 0.34%; the “Time 5 Min (optical density, 450nm)” value is 0.858; the “Percent Change 10 Min” value worked out at 1.05%. The “Time 10 Min (optical density, 450nm)” value under setting [1] is listed as 0.852. For the same compound, the “Time 0 Min (optical density, 450nm)” value under setting [2] is reported as 0.634. Where the note is “lysozyme/no heat”, the “Percent Change 5 Min” value was 91.80%; the “Time 5 Min (optical density, 450nm)” value was determined as 0.052; the “Percent Change 10 Min” value stood at 95.43%; the “Time 10 Min (optical density, 450nm)” value was 0.029. Where the note is “no lysozyme”, the “Time 0 Min (optical density, 450nm)” value turned out to be 0.856; the “Percent Change 5 Min” value was determined as 0.47%; the “Time 5 Min (optical density, 450nm)” value is 0.852; the “Percent Change 10 Min” value was found to be 0.23%. Also, the “Time 10 Min (optical density, 450nm)” value (no lysozyme) was 0.854.

Consider `NC(CO)(CO)CO` [Tris, 2-amino-2-hydroxymethyl-1,3-propanediol], for which, under setting [1], the “Time 0 Min (optical density, 450nm)” value amounted to 0.810; the “Percent Change 5 Min” value is on record as 80.99%; the “Time 5 Min (optical density, 450nm)” value is 0.154; the “Percent Change 10 Min” value is recorded as 85.56%. Further, the “Time 10 Min (optical density, 450nm)” value under setting [1] turned out to be 0.117. The “Time 0 Min (optical density, 450nm)” value under setting [2] is 0.654. Further, under “lysozyme/no heat”, the “Percent Change 5 Min” value is on record as 92.66%; the “Time 5 Min (optical density, 450nm)” value turned out to be 0.048; the “Percent Change 10 Min” value came out at 95.72%; the “Time 10 Min (optical density, 450nm)” value was found to be 0.028. Also, under “no lysozyme”, the “Time 0 Min (optical density, 450nm)” value is 0.859; the “Percent Change 5 Min” value is listed as 0.58%; the “Time 5 Min (optical density, 450nm)” value is 0.854; the “Percent Change 10 Min” value is on record as 0.58%. Where the note is “no lysozyme”, the “Time 10 Min (optical density, 450nm)” value is given as 0.854.

Values taken from patent US20030153475A1, “Composition for treating contact lenses” (priority 2001, published 2003).
